11 compounds from patent publication US20250194601A1, “PYRIDAZINONE COMPOUND OR SALT THEREOF AND PEST CONTROL AGENT CONTAINING IT” (ISHIHARA SANGYO KAISHA, LTD., priority 2022, published 2025) can be followed below.

What all share (format): in vivo
Test [1] relates to green peach aphid (Myzus persicae). The experiment in a line: whole plant or invertebrate. Conditions: in Raphanus sativus, foliar, nymphs, 5th day after the application. The source says: Test on effect against green peach aphid (Myzus persicae)
(§1) A Japanese radish leaf was inserted in a test tube in which water was put, and 5 adults of green peach aphid were released on the leaf. On the next day, the adults were removed, and the number of nymphs parasitic on the leaf was counted as the number of tested nymphs, and then the leaf was dipped in a chemical solution of a test compound at a concentration of 200 ppm or 50 ppm. After the chemical solution dried in air, the leaf was left in a constant temperature chamber with lighting at 25° C. On the 5th day after the application, the number of dead nymphs was counted, and the mortality (%) was calculated by the following formula. Nymphs that dropped from the leaf or nymphs that were moribund were counted as dead nymphs.
Mortality (%)=[(Number of dead nymphs)/(number of tested nymphs)]x100

The test system of test [2] is brown planthopper (Nilaparvata luqens). The experiment in a line: whole plant or invertebrate. Particulars: in Oryza sativa, second to third instar nymphs, 5th day after release. The source says:
Test on effect against brown planthopper (Nilaparvata luqens) Rice seedlings were dipped in a chemical solution of a test compound at a concentration of 200 ppm or 50 ppm. After the chemical solution dried in air, the root was wrapped with wet adsorbent cotton, and the seedlings were put into a test tube. About 10 second to third instar nymphs of brown planthopper were released, the test tube was covered with a gauze, and the test tube was left in a constant temperature chamber with lighting at 25° C. On the 5th day after release, the number of dead nymphs was counted, and the mortality (%) was calculated by the following formula.
Mortality (%)=[(number of dead nymphs)/(number of released nymphs)]×100

Test [3] relates to two-spotted spider mite (Tetranychus urticae). The test is described as follows: Test Example 3: effects against two-spotted spider mite, kidney bean leaf dip. Conditions: foliar, adults, 3rd day after the application. How it is done: Test on effects against two-spotted spider mite (Tetranychus urticae) In a chemical solution of a test compound at a concentration of 800 ppm, 200 ppm or 50 ppm, a leaf of kidney bean on which about 20 adults of two-spotted spider mite had been released, was dipped. After the chemical solution dried in air, the leaf was left in a constant temperature chamber with lighting at 25° C. On the 3rd day after the application, the number of dead adults was counted, and the mortality (%) was calculated by the following formula. Adults that dropped from the leaf or adults that were moribund were counted as dead adults.

For test [4], the system named is green peach aphid (Myzus persicae). The experiment in a line: Comparative Test Example 2: green peach aphid, radish leaf dip. Particulars: foliar, 5th day after the application; for mortality at 50 ppm: Active ingredient concentration 50 ppm; for mortality at 200 ppm: Active ingredient concentration 200 ppm.
Source text: as §1, with “aphid (Myzus persicae)” for “aphid”, “[…].” for “25° C.”
The test compounds were the same as in Comparative Test Example 1.

In test [5] the test system is brown planthopper (Nilaparvata luqens). The experiment in a line: Comparative Test Example 1: brown planthopper, rice seedling dip. Conditions: 5th day after release; for mortality at 50 ppm: Active ingredient concentration 50 ppm; for mortality at 200 ppm: Active ingredient concentration 200 ppm. How it is done: Rice seedlings were dipped in a chemical solution of a test compound at a concentration of 200 ppm or 50 ppm. After the chemical solution dried in air, the root was wrapped with wet adsorbent cotton, and the seedlings were put into a test tube. About 10 second to third instar nymphs of brown planthopper (Nilaparvata luqens)were released, the test tube was covered with a gauze, and the test tube was left in a constant temperature chamber with lighting at 25° C. On the 5th day after release, the number of dead nymphs was counted, and the mortality (%) was calculated by the following formula.
The test compounds are Compound No. 2-12 as the compound of the present invention and the following Comparative Compounds (A) and (B) as the comparative compounds.

Broadly, the mortality is the share of the test organisms that died. A low value points to more survivors.

A value given as a limit tells only on which side of the number the result lay.

Take `CCc1nn(-c2ncc(C(F)(F)F)cc2Cl)c(=O)c(-n2ccc(C(F)(F)F)n2)c1O` [1-57, 2-[3-chloro-5-(trifluoromethyl)pyridin-2-yl]-6-ethyl-5-hydroxy-4-[3-(trifluoromethyl)-1 H-pyrazol-1-yl]pyridazin-3(2H)-one]: the mortality at 200 ppm in test [1] and in test [2] was no less than 90% throughout.

Turning to `CCc1nn(-c2ccc(C(F)(F)F)cc2Cl)c(=O)c(-n2ccc(C(F)(F)F)n2)c1O` [2-12], the mortality at 800 ppm in test [3] is no less than 80%. In addition, the mortality at 200 ppm was no less than 90% in test [1], 100% in test [4], no less than 90% in test [2] and 100% in test [5]. Also, the mortality at 50 ppm in test [4] and in test [5] was 100% in each case.

For the compound `CCc1nn(-c2c(Cl)cc(C(F)(F)F)cc2Cl)c(=O)c(-n2ccc(C(F)(F)F)n2)c1O` [2-97, 2-[2,6-dichloro-4-(trifluoromethyl)phenyl]-6-ethyl-5-hydroxy-4-[3-(trifluoromethyl)-1 H-pyrazol-1-yl]pyridazin-3(2H)-one], the mortality at 800 ppm in test [3] was no less than 80%. Besides, the mortality at 200 ppm in test [1] and in test [2] was no less than 90% each time.

For `CCc1nn(-c2c(C)cc(S(=O)(=O)C(F)(F)F)cc2C)c(=O)c(-n2ccc(Cl)n2)c1O` [2-191, 4-(3-chloro-1 H-pyrazol-1-yl)-2-{2,6-dimethyl-4-[(trifluoromethyl)sulfonyl]phenyl}-6-ethyl-5-hydroxypyridazin-3(2H)-one], the mortality at 200 ppm in test [1] and in test [2] was no less than 90% throughout.

For `COCc1nn(-c2c(C)cc(C(F)(F)F)cc2C)c(=O)c(-n2ccc(Cl)n2)c1O` [2-444, 4-(3-chloro-1 H-pyrazol-1-yl)-2-[2,6-dimethyl-4-(trifluoromethyl)phenyl]-5-hydroxy-6-(methoxymethyl)pyridazin-3(2H)-one], the mortality at 200 ppm in test [1] and in test [2] was no less than 90% in each case.

Regarding `Cc1ccn(-c2c(O)c(C(F)(F)F)nn(-c3c(C)cc(C(F)(F)F)cc3C)c2=O)n1` [2-516, 2-[2,6-dimethyl-4-(trifluoromethyl)phenyl]-5-hydroxy-4-(3-methyl-1 H-pyrazol-1-yl)-6-(trifluoromethyl)pyridazin-3(2H)-one], the mortality at 200 ppm in test [3] was no less than 80%; in test [1] it was no less than 90%; in test [2], no less than 90%.

As to `CCc1nn(-c2c(C)cc(C(F)(F)F)cc2C)c(=O)c(-n2cnc([N+](=O)[O-])n2)c1O` [6-65, 2-[2,6-dimethyl-4-(trifluoromethyl)phenyl]-6-ethyl-5-hydroxy-4-(3-nitro-1 H-1,2,4-triazol-1-yl)pyridazin-3(2H)-one], the mortality at 200 ppm in test [1] and in test [2] was no less than 90% each time.

`CCc1ncn(-c2c(O)c(C(C)C)nn(-c3c(C)cc(C(F)(F)F)cc3C)c2=O)n1` [6-134, 2-[2,6-dimethyl-4-(trifluoromethyl)phenyl]-4-(3-ethyl-1 H-1,2,4-triazol-1-yl)-5-hydroxy-6-isopropylpyridazin-3(2H)-one]: the mortality at 200 ppm is no less than 80% in test [3], no less than 90% in test [1] and no less than 90% in test [2].

For the compound `CCc1nn(-c2c(C)cc(C#N)cc2C)c(=O)c(-n2cnc(Cl)n2)c1O` [6-136, 4-[5-(3-chloro-1 H-1,2,4-triazol-1-yl)-3-ethyl-4-hydroxy-6-oxopyridazin-1(6H)-yl]-3,5-dimethylbenzonitrile], the mortality at 200 ppm in test [1] and in test [2] was no less than 90% each time.

With `CCc1nn(C)c(=O)c(-n2ccc(C(F)(F)F)n2)c1O` [Comparative compound (A)], the mortality at 50 ppm in test [4] and in test [5] was 0% throughout. In addition, the mortality at 200 ppm in test [4] was 20%; in test [5], 0%.

For the compound `CCc1nn(-c2ccc(C(F)(F)F)cc2Cl)c(=O)c(-c2ccc(F)cc2)c1O` [Comparative compound (B)], the mortality at 50 ppm in test [4] and in test [5] was 0% throughout. The mortality at 200 ppm was 30% in test [4] and 0% in test [5].
